Experimental data from patent US7135303B2, “Regulators of type-1 tumor necrosis factor receptor and other cytokine receptor shedding” (The United States of America as represented by the …, priority 2000, dated 2006).
“Also recorded” adds a separate entry of the source.

B1: ARTS-1: aminopeptidase regulator of type I, 55 kDa tumor necrosis factor receptor ectodomain shedding; 941 amino acids, SEQ ID NO:2; overexpressed from pTarget (protein, listed as Homo sapiens)
chain: MVFLPLKWSLATMSFLLSSLLALLTVSTPSWCQSTEASPKRSDGTPFPWNKIRLPEYVIPVHYDLLIHANLTTLTFWGTTKVEITASQPTSTIILHSHHLQISRATLRKGAGERLSEEPLQVLEHPRQEQIALLAPEPLLVGLPYTVVIHYAGNLSETFHGFYKSTYRTKEGELRILASTQFEPTAARMAFPCFDEPAFKASFSIKIRREPRHLAISNMPLVKSVTVAEGLIEDHFDVTVKMSTYLVAFIISDFESVSKITKSGVKVSVYAVPDKINQADYALDAAVTLLEFYEDYFSIPYPLPKQDLAAIPDFQSGAMENWGLTTYRESALLFDAEKSSASSKLGITMTVAHELAHQWFGNLVTMEWWNDLWLNEGFAKFMEFVSVSVTHPELKVGDYFFGKCFDAMEVDALNSSHPVSTPVENPAQIREMFDDVSYDKGACILNMLREYLSADAFKSGIVQYLQKHSYKNTKNEDLWDSMASICPTDGVKGMDGFCSRSQHSSSSSHWHQEGVDVKTMMNTWTLQKGFPLITITVRGRNVHMKQEHYMKGSDGAPDTGYLWHVPLTFITSKSDMVHRFLLKTKTDVLILPEEVEWIKFNVGMNGYYIVHYEDDGWDSLTGLLKGTHTAVSSNDRASLINNAFQLVSIGKLSIEKALDLSLYLKHETEIMPVFQGLNELIPMYKLMEKRDMNEVETQFKAFLIRLLRDLIDKQTWTDEGSVSERMLRSQLLLLACVHNYQPCVQRAEGYFRKWKESNGNLSLPVDVTLAVFAVGAQSTEGWDFLYSKYQFSLSSTEKSQIEFALCRTQNKEKLQWLLDESFKGDKIKTQEFPQILTLIGRNPVGYPLAWQFLRKNWNKLVQKFELGSSSIAHMVMGTTNQFSTRTRLEEVKGFFSSLKENGSQLRCVQQTIETIEENIGWMDKNFDKIRVWLQSEKLERM
notes: aminopeptidase regulator of type I, 55 kDa tumor necrosis factor receptor ectodomain shedding; overexpressed from pTarget

Assays:
Type in all cases: cell-based, human
[1] = test system: TNFR1 ectodomain shedding in NCI-H292 cells; test: TNFR1 ectodomain shedding assay (sTNFR1 sandwich ELISA of cell culture supernatants); settings: for sTNFR1 in cell culture supernatant following PMA treatment: 24 hours
Description: The amount of TNFR1 ectodomain shedding occurring in each of these cell lines is depicted in FIG. 8. The levels of sTNFR1 ectodomain in cell culture supernatants from these cell lines were assayed using a commercially available sandwich-enzyme-linked immunosorbent assay (ELISA) technique (R & D Systems) with a lower limit of detection of 7.8 pg/ml.
Following the introduction and selection of these constructs in the host cell lines, the amount of TNFR1 ectodomain shedding occurring in each of the lines was determined by measuring the levels of sTNFR1 ectodomain in cell culture supernatants using a commercially available sandwich-enzyme-linked immunosorbent assay (ELISA) technique (R & D Systems) with a lower limit of detection of 7.8 pg/ml.
The amount of TNFR1 ectodomain shedding occurring in each of the stably transfected cell lines described in Example 9 was assessed. The levels of sTNFR1 ectodomain in cell culture supernatants from these cell lines were assayed by a commercially available sandwich-enzyme-linked immunosorbent assay (ELISA) technique (R & D Systems) with a lower limit of detection of 7.8 pg/ml. The protocol used was according to the manufacturer's instructions. The results of this assay are depicted in FIG. 8 as the mean of 5 independent experiments, with accompanying SEM (standard error of the mean) indicated above the bar.
A similar experiment analyzing the ability of ARTS-1 overexpression to potentiate the cleavage and shedding of TNFR ectodomain from the surface of NCI-H292 cells in response to PMA stimulation using these same cell lines is shown in FIG. 9.
This assay was further used to measure the sTNFR1 ectodomain shedding activity of ARTS-1 peptidase/protease catalytic mutants. The construction of these mutations (and resulting mutant cell lines) are described in Example 10. The ability of theses mutants to regulate sTNFR1 shedding was ascertained by measuring the concentration of sTNFR1 in the cell culture supernatant as described above in this Example.
Results from a second screening method are illustrated in FIG. 14, Panel B. In this screening method, cultured human NCI-H292 pulmonary mucoepidermoid carcinoma cells were again exposed to a test compound, PMA, at a concentration of 0.1 μM. Culture medium supernatant was collected from the cultures at intervals between 0 and 24 hours post treatment. The samples were analyzed by the TNFR1 ectodomain shedding assay using an ELISA as described in Example 11. In this assay, anti-sTNFR1 antibody was used to quantitate the concentrations of sTNFR1 in the cell culture supernatants. […] Thus, this screening method also identified a compound that is a candidate for further drug development.

[2] = test system: ARTS-1 protein in NCI-H292 cells; test: Drug screening: ARTS-1 protein expression by Western immunoblot of membrane protein fractions; settings: 0.1 μM PMA, 0 to 24 hours, membrane protein fraction
Description: In another embodiment of the screening method of the present invention, Western immunoblotting is used to assess the levels of ARTS-1 protein following exposure of a cell culture to a test compound. In this embodiment, cultured cells were exposed to a test compound, in this case, 4b-phorbol 12-myristate 13-acetate (PMA), and samples of tissue were collected at 0, 2, 8 and 24 hours following the exposure. Membrane proteins were isolated from these cells and subjected to Western immunoblot analysis, as described in Examples 4 and 5, using antiserum specific for the ARTS-1 protein. […] It is contemplated that compounds that can upregulate ARTS-1 protein levels are therapeutically advantageous, as such compounds can suppress a proinflammatory immune response by enhancing receptor ectodomain shedding. However, an understanding of the mechanism(s) is not required in order to use the present invention. […]
In the first method, cultured human NCI-H292 pulmonary mucoepidermoid carcinoma cells were exposed to a test compound, in this case, 4b-phorbol 12-myristate 13-acetate (PMA) at a concentration of 0.1 μM. […] The protein samples were analyzed in a Western immunoblot using the anti-ARTS-1 antiserum at the primary detection antibody, as described in Examples 4 and 5. The protein fractions were analyzed in duplicate, and the relative densitometry units for each lane are shown beneath the columns. […]

[3] = test system: membrane-associated TNFR1 in NCI-H292 cells; test: Membrane-associated TNFR1 by Western immunoblot of crude membrane fractions of stably transfected cells
Description: The degree of TNFR1 ectodomain shedding as a function of ARTS-1 protein expression was also assessed indirectly by determining the relative amounts of membrane-bound TNFR1 fragment in each of the stably transfected cell lines described above using the Western immunoblotting technique described in Example 5. Crude membrane fractions from the stably transfected NCI-H292 cells described in Example 9 were prepared and resolved by SDS-PAGE and analyzed by Western immunoblotting using a murine anti-human TNFR1 monoclonal primary antibody (R & D System) which detects the membrane fragment of the TNF receptor.
The degree of TNFR1 ectodomain shedding as a function of ARTS-1 protein expression was also indirectly assessed by determining the relative amounts of membrane-bound TNFR1 fragment in each of the stably transfected cell lines described in Example 9 using Western immunoblotting.
Crude membrane fractions from the stably transfected NCI-H292 cells described in Example 9 were prepared and protein concentrations were quantitated, as described above. Samples from these membrane-derived protein preparations were resolved by SDS-PAGE and analyzed by Western immunoblotting as described above in Example 5 using a murine anti-human TNFR1 monoclonal primary antibody which detected the membrane fragment of the receptor (R & D System). […]

Molecule	sTNFR1 in cell culture supernatant following PMA treatment ([1]; 0.1 μM PMA, NCI-H292 cell line containing only the empty pTarget vector) [pg/mL]	sTNFR1 in cell culture supernatant following PMA treatment ([1]; 0.1 μM PMA, NCI-H292 cell line overexpressing the ARTS-1 cDNA) [pg/mL]	sTNFR1 shedding compared to a control culture ([1]; NCI-H292 cells, 0.1 μM PMA, over the course of 24 hours, n=5, P<0.05)	ARTS-1 protein expression [2]	increase in sTNFR1 shedding ([1]; overexpression of ARTS-1 protein in stably transfected NCI-H292 cells vs Mock or WT controls)	level of sTNFR1 in cell culture supernatant compared to control cell lines (WT, Mock) ([1]; stably transfected NCI-H292 cell lines, mean of 5 independent experiments)	membrane-associated TNFR1 relative to WT or Mock cell lines [3]
CCCCCCCCCCCCCC(=O)O[C@@H]1[C@@H](C)[C@@]2(O)[C@@H](C=C(CO)C[C@]3(O)C(=O)C(C)=C[C@@H]23)[C@@H]2C(C)(C)[C@]12OC(C)=O [PMA, 4b-phorbol 12-myristate 13-acetate]	415.3 ± 4.5	914.2 ± 9.5	increase in sTNFR1 shedding	upregulation of ARTS-1 protein expression; also recorded: increase in ARTS-1 protein expression			
B1					approximately 200%	significant increase; also recorded: significantly elevated level of sTNFR1	decrease
